Test results as given in patent US4263280A, “Synergistic mixtures” (priority 1978, dated 1981).
Where a name gives a salt, the structure may show the parent alone.

How the values were obtained:
Proteus mirabilis 1077 = test: in vitro MIC, chessboard microdilution, Proteus mirabilis 1077; type: cell-based; settings: for MIC: Proteus mirabilis, 1077, alone, 18 hours, 37° C., read-out: MIC, antibiotic alone
Experimental: (§1) The combination substances A and B are diluted in DST broth OXOID in chessboard arrangement with the aid of microtitre system in 1:2 steps. All the concentrations of substance A are combined with all the concentrations of substance B and then inoculated with a standardised bacteria suspension (final concentration about 10^4 bacilli/ml). After incubation for 18 hours at 37° C., the inhibition of the bacterial growth is determined. The inhibiting concentrations are converted by the method of Kerry et al. (J. Antimicrob. […] By way of example, a number of the MIC values for the action of cefsulodin sodium, mecillinam, mezlocillin and gentamicin alone against a number of micro-organisms, as well as the MIC values for a number of mixtures in which synergism occurs, are reported in Table 1.

Escherichia coli 12-44 = test: in vitro MIC, chessboard microdilution, Escherichia coli 12-44; type: cell-based; settings: for MIC: Escherichia coli, 1244, alone, 18 hours, 37° C., read-out: MIC, antibiotic alone
Experimental: as §1

[1] = system: Pseudomonas aeruginosa + Klebsiella pneumoniae; test: experimental pyelonephritis (polyinfection) in mice, Pseudomonas aeruginosa + Klebsiella pneumoniae; type: in vivo; settings: percentage of animals
Experimental: (§2) Mice are treated intravenously with 10 mg/kg of carrageenin. Seven days later they are infected with a standardised suspension of bacteria. […] Two days after the last treatment, the mice are sacrificed, dissected and examined for the number of germs in the kidneys.

Escherichia coli 576 = test: in vitro MIC, chessboard microdilution, Escherichia coli 576; type: cell-based
Experimental: as §1

[2] = system: Pseudomonas aeruginosa G 121; test: in vitro MIC, chessboard microdilution, Pseudomonas aeruginosa G 121; type: cell-based; settings: for MIC: Pseudomonas aeruginosa, G121, alone, 18 hours, 37° C., read-out: MIC, antibiotic alone
Experimental: as §1

[3] = system: enterobacteria, such as Escherichia coli and Klebsiella pneumoniae; settings: cited from earlier work
[4] = system: Pseudomonas aeruginosa 410; test: in vitro MIC, chessboard microdilution, Pseudomonas aeruginosa 410; type: cell-based
Experimental: as §1

[5] = system: Gram-negative cocci, Gram-positive cocci and bacteria, and especially against Pseudomonas strains; settings: carbenicillin-sensitive and carbenicillin-resistant Pseudomonas; cited from earlier work
Klebsiella pneumoniae 1 = test: in vitro MIC, chessboard microdilution, Klebsiella pneumoniae 1; type: cell-based; settings: for MIC: Klebsiella pneumoniae, 1, alone, 18 hours, 37° C., read-out: MIC, antibiotic alone
Experimental: as §1

Escherichia coli 205 = test: systemic infection in mice, survival, Escherichia coli 205; type: in vivo; settings: fifth day
Experimental: (§3) The combination substances A and B are diluted in 1:3 to 1:3.3 steps such that the average concentration contains the respective amount of substance A and substance B corresponding to the ED50.
(§4) Female MF 2 mice weighing 18 to 22 g are divided at random into groups (n=20) and infected intraperitoneally with a standardised bacteria suspension which, according to strain, represents 5 to >20 LD50.
(§5) Immediately after the infection, and 3 hours later, the mice are treated in groups subcutaneously with dilutions of substances A and B as well as with combinations thereof. These combinations are prepared shortly before administration by mixing each dilution of substance A with each dilution of substance B. The survival rates are determined on the fifth day after the infection. The survival rates of mice which are determined with each of substances A and B alone are compared with those obtained with the combinations of these substances. A combination which has protected more animals from death than would be expected from the independent action of the substances, is designated as having synergistic action.
(§6) The survival rates, expressed as percentages of surviving animals, found in infections with a number of pure micro-organisms and in polyinfections is reported in Table 2 for cefsulodin sodium, mecillinam, mezlocillin, gentamicin and CGP 14 221/E, as well as for corresponding mixtures.

[6] = system: Kiebsiella pneumoniae 1132; test: in vitro MIC, chessboard microdilution, Klebsiella pneumoniae 1132; type: cell-based; settings: for MIC: Klebsiella pneumoniae, 1132, alone, 18 hours, 37° C., read-out: MIC, antibiotic alone
Experimental: as §1

[7] = system: Klebsiella pneumoniae 1136; test: in vitro MIC, chessboard microdilution, Klebsiella pneumoniae 1136; type: cell-based; settings: for MIC: Klebsiella pneumoniae, 1136, alone, 18 hours, 37° C., read-out: MIC, antibiotic alone
Experimental: as §1

[8] = system: Klebsiella pneumoniae 327; test: systemic infection in mice, survival, Klebsiella pneumoniae 327; type: in vivo; settings: fifth day
Experimental: as §3, §4, §5, §6

[9] = system: Escherichia coli 205 RTEM^+; test: systemic infection in mice, survival, Escherichia coli 205 RTEM+; type: in vivo; settings: fifth day
Experimental: as §3, §4, §5, §6

[10] = system: anaerobei, for example Bacteroides; settings: cited from earlier work
Proteus rettgeri 1121 = test: in vitro MIC, chessboard microdilution, Proteus rettgeri 1121; type: cell-based; settings: for MIC: Providencia rettgeri, 1121, read-out: MIC, antibiotic alone
Experimental: as §1

[11] = system: Klebsiella pneumoniae 329 + Escherichia coli 205; test: systemic polyinfection in mice, survival, Klebsiella pneumoniae 329 + Escherichia coli 205; type: in vivo; settings: fifth day
Experimental: as §3, §4, §5, §6

[12] = system: Pseudomonas aeruginosa + Escherichia coli; test: experimental pyelonephritis (polyinfection) in mice, Pseudomonas aeruginosa + Escherichia coli; type: in vivo; settings: percentage of animals
Experimental: as §2

[13] = system: Pseudomonas aeruginosa 1140; test: in vitro MIC, chessboard microdilution, Pseudomonas aeruginosa 1140; type: cell-based
Experimental: as §1

[14] = system: Klebsiella pneumoniae 329; test: systemic infection in mice, survival, Klebsiella pneumoniae 329; type: in vivo; settings: fifth day
Experimental: as §3, §4, §5, §6

Staphylococcus aureus = test: in vitro MIC, chessboard microdilution, Staphylococcus aureus; type: cell-based; settings: for MIC: Staphylococcus aureus, alone, 18 hours, 37° C., read-out: MIC, antibiotic alone
Experimental: as §1

[15] = system: Pseudomonas aeruginosa 799A; test: in vitro MIC, chessboard microdilution, Pseudomonas aeruginosa 799A; type: cell-based; settings: for MIC: Pseudomonas aeruginosa, 799A, alone, 18 hours, 37° C., read-out: MIC, antibiotic alone
Experimental: as §1

[16] = known β-lactamase inhibitors themselves; cited from earlier work
[17] = in combination with Gentamicin 0.25 mcg/ml
[18] = in combination with Mecillinam 0.25 mcg/ml
[19] = in combination with Cefsulodin-Na 12.5 mcg/ml

## NC(=O)c1cc[n+](CC2=C(C(=O)O)N3C(=O)[C@@H](NC(=O)[C@@H](c4ccccc4)S(=O)(=O)[O-])[C@H]3SC2)cc1 [Cefsulodin-Na, sodium salt of N-[7β-(α-sulfophenylacetamido)ceph-3-em-3-yl-methyl]-4'-carbamoylpyridinium-4-carboxylate]
Proteus mirabilis 1077
  MIC: 50 µg/mL
Proteus mirabilis 1077; in combination with Mezlocillin 0.25 mcg/ml
  MIC, antibiotic A in combination with B: 12.5 µg/mL
Escherichia coli 12-44
  MIC: 25 µg/mL
Escherichia coli 12-44; in combination with Mecillinam 0.12 mcg/ml
  MIC, antibiotic A in combination with B: 12.5 µg/mL
[1]; 25 mg/kg s.c.
  Clearance of the kidneys from both micro-organisms, antibiotic alone: 10%
Escherichia coli 576; Escherichia coli, 576, alone, 18 hours, 37° C., read-out: MIC, antibiotic alone
  MIC: 64 µg/mL
Escherichia coli 576; [17]
  MIC, antibiotic A in combination with B: 32 µg/mL
[2]
  MIC: 1.2 µg/mL
[2]; in combination with Mezlocillin 12.5 mcg/ml
  MIC, antibiotic A in combination with B: 0.04 µg/mL
[3]
  antibiotic action against enterobacteria: relatively insignificant action
[4]; Pseudomonas aeruginosa, 410, alone, 18 hours, 37° C., read-out: MIC, antibiotic alone
  MIC: 2 µg/mL
[4]; [17]
  MIC, antibiotic A in combination with B: 0.06 µg/mL
[5]
  antibiotic action: directed against Gram-negative cocci, Gram-positive cocci and bacteria, and especially against Pseudomonas strains, both carbenicillin-sensitive and carbenicillin-resistant
Klebsiella pneumoniae 1
  MIC: 50 µg/mL
Klebsiella pneumoniae 1; in combination with Mezlocillin 0.16 mcg/ml
  MIC, antibiotic A in combination with B: 25 µg/mL
Escherichia coli 205; 25 mg/kg s.c.
  surviving animals, antibiotic alone: 5%
Escherichia coli 205; 40 mg/kg s.c.
  surviving animals, antibiotic alone: 10%
[6]
  MIC: 25 µg/mL
[6]; [18]
  MIC, antibiotic A in combination with B: 6.2 µg/mL
[7]
  MIC: 50 µg/mL
[7]; [18]
  MIC, antibiotic A in combination with B: 12.5 µg/mL
[8]; 50 mg/kg s.c.
  surviving animals, antibiotic alone: 0%
[8]; 100 mg/kg s.c.
  surviving animals, antibiotic alone: 0%
[9]; 40 mg/kg s.c.
  surviving animals, antibiotic alone: 0%
[10]
  antibiotic action against anaerobei: relatively insignificant action
Proteus rettgeri 1121; alone, 18 hours, 37° C.
  MIC: 12.5 µg/mL
Proteus rettgeri 1121; in combination with Gentamicin 0.5 mcg/ml
  MIC, antibiotic A in combination with B: 0.8 µg/mL
Proteus rettgeri 1121; in combination with Mecillinam 1.6 mcg/ml
  MIC, antibiotic A in combination with B: 0.4 µg/mL
[11]; 100 mg/kg s.c.
  surviving animals, antibiotic alone: 0%
[12]; 25 mg/kg s.c.
  Clearance of the kidneys from both micro-organisms, antibiotic alone: 0%
[13]; Pseudomonas aeruginosa, 1140, alone, 18 hours, 37° C., read-out: MIC, antibiotic alone
  MIC: 8 µg/mL
[13]; in combination with Gentamicin 4 mcg/ml
  MIC, antibiotic A in combination with B: 2 µg/mL
[14]; 40 mg/kg s.c.
  surviving animals, antibiotic alone: 0%
[14]; 50 mg/kg s.c.
  surviving animals, antibiotic alone: 0%
[14]; 80 mg/kg s.c.
  surviving animals, antibiotic alone: 5%
Staphylococcus aureus
  MIC: 3.2 µg/mL
Staphylococcus aureus; in combination with Mezlocillin 1.6 mcg/ml
  MIC, antibiotic A in combination with B: 0.2 µg/mL
[15]
  MIC: 1 µg/mL
[15]; in combination with Mecillinam 32 mcg/ml
  MIC, antibiotic A in combination with B: 0.25 µg/mL

## CC1(C)S[C@@H]2[C@H](/N=C/N3CCCCCC3)C(=O)N2[C@H]1C(=O)O [Mecillinam]
Escherichia coli 12-44
  MIC: 2 µg/mL
Escherichia coli 12-44; [19]
  MIC, antibiotic B in combination with A: 0.12 µg/mL
Escherichia coli 205; 1 mg/kg s.c.
  surviving animals, antibiotic alone: 0%
Escherichia coli 205; 2 mg/kg s.c.
  surviving animals, antibiotic alone: 0%
[6]
  MIC: 1 µg/mL
[6]; in combination with Cefsulodin-Na 6.2 mcg/ml
  MIC, antibiotic B in combination with A: 0.25 µg/mL
[7]
  MIC: 1 µg/mL
[7]; [19]
  MIC, antibiotic B in combination with A: 0.25 µg/mL
Proteus rettgeri 1121; alone, 18 hours, 37° C.
  MIC: 3.2 µg/mL
Proteus rettgeri 1121; in combination with Cefsulodin-Na 0.4 mcg/ml
  MIC, antibiotic B in combination with A: 1.6 µg/mL
[14]; 300 mg/kg s.c.
  surviving animals, antibiotic alone: 0%
[15]
  MIC: 1000 µg/mL
[15]; in combination with Cefsulodin-Na 0.25 mcg/ml
  MIC, antibiotic B in combination with A: 32 µg/mL

## CC1(C)[C@H](C(=O)O)N2C(=O)C[C@H]2S1(=O)=O [penicillanic acid 4,4-dioxide]
[16]
  antibiotic action: insignificant antibiotic action

## CN(C)CCn1nnnc1SCC1=C(C(=O)O)N2C(=O)[C@@H](NC(=O)Cc3csc(N)n3)[C@H]2SC1 [CGP 14221/E, 7[2(2-lmino-1,3-thiazolin-4-yl)acetamido3-[1(3-dimethylamino)-tetrazol-5-ylthio-methyl3-cephem-4-carboxylic acid hydrochloride]
Escherichia coli 205; 0.62 mg/kg s.c.
  surviving animals, antibiotic alone: 0%
Escherichia coli 205; 2.5 mg/kg s.c.
  surviving animals, antibiotic alone: 0%
[8]; 20 mg/kg s.c.
  surviving animals, antibiotic alone: 0%
[8]; 40 mg/kg s.c.
  surviving animals, antibiotic alone: 0%
[9]; 1.2 mg/kg s.c.
  surviving animals, antibiotic alone: 10%
[11]; 20 mg/kg s.c.
  surviving animals, antibiotic alone: 0%

## O=C(O)[C@H]1/C(=C/CO)O[C@@H]2CC(=O)N21 [clavulanic acid]
[16]
  antibiotic action: insignificant antibiotic action

## Gentamicin
[1]; 0.5 mg/kg s.c.
  Clearance of the kidneys from both micro-organisms, antibiotic alone: 0%
[1]; 2.5 mg/kg s.c.
  Clearance of the kidneys from both micro-organisms, antibiotic alone: 40%
Escherichia coli 576; alone, 18 hours, 37° C.
  MIC, antibiotic alone: 2 µg/mL
Escherichia coli 576; in combination with Cefsulodin-Na 32 mcg/ml
  MIC, antibiotic B in combination with A: 0.25 µg/mL
[4]; alone, 18 hours, 37° C.
  MIC, antibiotic alone: 0.5 µg/mL
[4]; in combination with Cefsulodin-Na 0.06 mcg/ml
  MIC, antibiotic B in combination with A: 0.25 µg/mL
Proteus rettgeri 1121; alone, 18 hours, 37° C.
  MIC, antibiotic alone: 1 µg/mL
Proteus rettgeri 1121; in combination with Cefsulodin-Na 0.8 mcg/ml
  MIC, antibiotic B in combination with A: 0.5 µg/mL
[12]; 1 mg/kg s.c.
  Clearance of the kidneys from both micro-organisms, antibiotic alone: 0%
[13]; alone, 18 hours, 37° C.
  MIC, antibiotic alone: 32 µg/mL
[13]; in combination with Cefsulodin-Na 2 mcg/ml
  MIC, antibiotic B in combination with A: 4 µg/mL
[14]; 0.2 mg/kg s.c.
  surviving animals, antibiotic alone: 30%

## CC1(C)S[C@@H]2[C@H](NC(=O)[C@H](NC(=O)N3CCN(S(C)(=O)=O)C3=O)c3ccccc3)C(=O)N2[C@H]1C(=O)O [Mezlocillin]
Proteus mirabilis 1077
  MIC: 1 µg/mL
Proteus mirabilis 1077; [19]
  MIC, antibiotic B in combination with A: 0.25 µg/mL
[2]
  MIC: 25 µg/mL
[2]; in combination with Cefsulodin-Na 0.04 mcg/ml
  MIC, antibiotic B in combination with A: 12.5 µg/mL
Klebsiella pneumoniae 1
  MIC: 1.25 µg/mL
Klebsiella pneumoniae 1; in combination with Cefsulodin-Na 25 mcg/ml
  MIC, antibiotic B in combination with A: 0.16 µg/mL
Escherichia coli 205; 50 mg/kg s.c.
  surviving animals, antibiotic alone: 0%
[14]; 300 mg/kg s.c.
  surviving animals, antibiotic alone: 0%
Staphylococcus aureus
  MIC: 3.2 µg/mL
Staphylococcus aureus; in combination with Cefsulodin-Na 0.2 mcg/ml
  MIC, antibiotic B in combination with A: 1.6 µg/mL
